Measurements from ChEMBL document CHEMBL1201862, “PubChem BioAssay data set” (2004).
Several values for one entry are separate records, joined by “and”; a condition that tells them apart may be missing. Identical values can stand only once.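 Exposure lasted 48 hours, with cells grown in 96-well plates and compounds tested at five concentrations. Abbreviation: GI50, concentration required for 50% inhibition of growth.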 Activity calls are given as the source filed them. Rule as the data show it: active = GI50 up to about 1.1 µM and inactive = higher.

Tests used:
Test in all cases: NCI-60 cell line screen, 48 h
[1] = system: A498
[2] = system: EKVX
[3] = system: HOP-62
[4] = system: LOX IMVI
[5] = system: M14
[6] = system: MCF7
[7] = system: Malme-3M
[8] = system: NCI-H522
[9] = system: OVCAR-3
[10] = system: OVCAR-4
[11] = system: OVCAR-5
[12] = system: OVCAR-8
[13] = system: RPMI-8226
[14] = system: SF-539
[15] = system: SK-MEL-2
[16] = system: SK-OV-3
[17] = system: SR
[18] = system: TK-10
[19] = system: UACC-257
[20] = system: NCI/ADR-RES

Row | SMILES | GI50 [1] | GI50 [2] | GI50 [3] | GI50 [4] | GI50 [5] | GI50 [6] | GI50 [7] | GI50 [8] | GI50 [9] | GI50 [10] | GI50 [11] | GI50 [12] | GI50 [13] | GI50 [14] | GI50 [15] | GI50 [16] | GI50 [17] | GI50 [18] | GI50 [19] | GI50 [20]
1 | OCCCCCCOc1ccc(-c2cc(-c3ccccn3)nc(-c3ccccn3)c2)cc1 | 1.11 µM (active) | 0.18 µM (active) | 0.172 µM (active) | 0.117 µM (active) | 0.202 µM (active) | 32.1 nM (active) | 0.404 µM (active) | 0.536 µM (active) | 0.22 µM (active) | 0.177 µM (active) | 0.489 µM (active) | 0.136 µM (active) | 0.134 µM (active) | 0.143 µM (active) | 0.233 µM (active) | 0.211 µM (active) | 0.0286 µM (active) | 0.357 µM (active) | 0.397 µM (active) | –
2 | CC(C)(C)C1=CC(=NNC(=S)NCc2ccccc2)C=C(C(C)(C)C)C1=O | 77.4 µM (inactive) | 89.3 µM (inactive) | > 100 µM (inactive) | 73.8 µM (inactive) | > 100 µM (inactive) | – | > 100 µM (inactive) | – | > 100 µM (inactive) | 90.2 µM (inactive) | – | > 100 µM (inactive) | > 100 µM (inactive) | > 100 µM (inactive) | > 100 µM (inactive) | – | > 100 µM (inactive) | > 100 µM (inactive) | 91.6 µM (inactive) | –
3 | CCOC(OCC)C(CC)[Se]c1ccccc1 (stereo unspecified) | > 100 µM (inactive) | > 100 µM (inactive) | > 100 µM (inactive) | 5.82 µM (inactive) | 16 µM (inactive) | – | 5.02 µM (inactive) | 15.6 µM (inactive) | > 100 µM (inactive) | 13.3 µM (inactive) | > 100 µM (inactive) | > 100 µM (inactive) | 18.3 µM (inactive) | > 100 µM (inactive) | > 100 µM (inactive) | > 100 µM (inactive) | 10.1 µM (inactive) | > 100 µM (inactive) | > 100 µM (inactive) | –
4 | COc1cc(Br)c(/C=N\c2cccc3ccc(OS(=O)(=O)c4cccc([N+](=O)[O-])c4)cc23)cc1OC | 66.5 µM (inactive) | 77.3 µM (inactive) | 34.4 µM (inactive) | 29.8 µM (inactive) | – | – | 36 µM (inactive) | 22.1 µM (inactive) | 32.7 µM (inactive) | 28.1 µM (inactive) | > 100 µM (inactive) | 24 µM (inactive) | 24 µM (inactive) | 16.9 µM (inactive) | 39.4 µM (inactive) | > 100 µM (inactive) | 20.2 µM (inactive) | – | 41.1 µM (inactive) | –
5 | O=c1[nH]ccc(CNC23CC4CC(CC(C4)C2)C3)c1O | > 100 µM (inactive) | 80.4 µM (inactive) | > 100 µM (inactive) | – | > 100 µM (inactive) | – | > 100 µM (inactive) | 24.8 µM (inactive) | > 100 µM (inactive) | > 100 µM (inactive) | > 100 µM (inactive) | > 100 µM (inactive) | > 100 µM (inactive) | > 100 µM (inactive) | > 100 µM (inactive) | > 100 µM (inactive) | 45.2 µM (inactive) | > 100 µM (inactive) | > 100 µM (inactive) | –
6 | COc1cc2c(c(OC)c1OC)-c1ccc(SC)c(=O)cc1[C@@H](NC(=O)c1ccc(Cl)cc1)CC2 | < 0.01 µM (active) | – | < 0.01 µM (active) | < 0.01 µM (active) | < 0.01 µM (active) | – | < 0.01 µM (active) | – | < 0.01 µM (active) | < 0.01 µM (active) | – | < 0.01 µM (active) | < 0.01 µM (active) | < 0.01 µM (active) | < 0.01 µM (active) | – | < 0.01 µM (active) | 2.36 µM (inactive) | < 0.01 µM (active) | –
7 | NCCCNCCCCN1CC1 | – | 4.61 µM (inactive) | 2.72 µM (inactive) | 0.637 µM (active) | 11.4 µM (inactive) | 28900 nM (inactive) | 4.57 µM (inactive) | 2.81 µM (inactive) | 1.6 µM (inactive) | 0.259 µM (active) | 12 µM (inactive) | 2.07 µM (inactive) | 7.01 µM (inactive) | 0.836 µM (active) | 1.69 µM (inactive) | 2.25 µM (inactive) | – | 5.96 µM (inactive) | 1.39 µM (inactive) | 3.33 µM (inactive)
8 | COc1ccc2cc1Oc1ccc(cc1)C[C@H]1c3cc(c(OC)cc3CCN1C)Oc1c(OC)c(OC)cc3c1[C@H](C2)N(C)CC3 [FANCHININ] | 7.33 µM (inactive) and 60.5 µM (inactive) | – | 5.94 µM (inactive) | – | 26.2 µM (inactive) and 260 nM (active) | 82 µM (inactive) and 6.43 µM (inactive) | – | 34.8 µM (inactive) and 6.61 µM (inactive) | 7.46 µM (inactive) | 2.42 µM (inactive) | – | 8.38 µM (inactive) and 53.7 µM (inactive) | 4.44 µM (inactive) | 20.1 µM (inactive) and 4.78 µM (inactive) | – | 5.9 µM (inactive) and 45.8 µM (inactive) | 2.47 µM (inactive) and 12.1 µM (inactive) | 22.9 µM (inactive) and 8.41 µM (inactive) | 43.1 µM (inactive) and 5.79 µM (inactive) | –
